Reference: publication PMC3253716 (Journal of Enzyme Inhibition and Medicinal Chemistry, 2010)
Entries after “also recorded” stand apart in the source; their conditions may differ.

Legend:
[1] = biological target: T1, recombinant mouse acetylcholinesterase (rMAChE) (Mus musculus, UniProt P21836); assay: Colorimetric; format: biochemical; settings: tested at 50 µM
T1 sequence (P21836 with tags, fused parts or gaps limits assumed): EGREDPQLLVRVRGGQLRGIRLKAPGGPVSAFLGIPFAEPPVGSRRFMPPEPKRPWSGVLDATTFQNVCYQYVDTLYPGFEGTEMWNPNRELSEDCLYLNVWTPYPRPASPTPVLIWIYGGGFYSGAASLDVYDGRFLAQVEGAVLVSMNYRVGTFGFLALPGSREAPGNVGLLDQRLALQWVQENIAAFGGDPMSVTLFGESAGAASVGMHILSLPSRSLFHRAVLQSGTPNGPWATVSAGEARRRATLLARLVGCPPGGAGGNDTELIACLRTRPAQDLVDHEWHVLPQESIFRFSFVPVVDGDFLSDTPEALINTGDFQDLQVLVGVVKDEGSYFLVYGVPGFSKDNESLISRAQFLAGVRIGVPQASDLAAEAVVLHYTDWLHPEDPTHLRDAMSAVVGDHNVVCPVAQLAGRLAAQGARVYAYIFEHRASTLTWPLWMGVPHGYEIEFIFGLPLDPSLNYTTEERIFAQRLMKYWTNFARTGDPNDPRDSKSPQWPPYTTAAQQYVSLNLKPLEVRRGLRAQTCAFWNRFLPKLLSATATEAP

[2] = biological target: electric eel acetylcholinesterase (EEAChE) (Electrophorus electricus, UniProt O42275); assay: Colorimetric; format: biochemical; settings: tested at 50 µM
EEAChE [3] = biological target: T2, EEAChE (Electrophorus electricus, UniProt O42275); settings: Lineweaver–Burk plot
EEAChE [4] = biological target: T2, EEAChE; settings: read-out: IC50 against EEAChE; competitive inhibition; cited from earlier work

Chain of electric eel acetylcholinesterase (EEAChE) (O42275 24-633): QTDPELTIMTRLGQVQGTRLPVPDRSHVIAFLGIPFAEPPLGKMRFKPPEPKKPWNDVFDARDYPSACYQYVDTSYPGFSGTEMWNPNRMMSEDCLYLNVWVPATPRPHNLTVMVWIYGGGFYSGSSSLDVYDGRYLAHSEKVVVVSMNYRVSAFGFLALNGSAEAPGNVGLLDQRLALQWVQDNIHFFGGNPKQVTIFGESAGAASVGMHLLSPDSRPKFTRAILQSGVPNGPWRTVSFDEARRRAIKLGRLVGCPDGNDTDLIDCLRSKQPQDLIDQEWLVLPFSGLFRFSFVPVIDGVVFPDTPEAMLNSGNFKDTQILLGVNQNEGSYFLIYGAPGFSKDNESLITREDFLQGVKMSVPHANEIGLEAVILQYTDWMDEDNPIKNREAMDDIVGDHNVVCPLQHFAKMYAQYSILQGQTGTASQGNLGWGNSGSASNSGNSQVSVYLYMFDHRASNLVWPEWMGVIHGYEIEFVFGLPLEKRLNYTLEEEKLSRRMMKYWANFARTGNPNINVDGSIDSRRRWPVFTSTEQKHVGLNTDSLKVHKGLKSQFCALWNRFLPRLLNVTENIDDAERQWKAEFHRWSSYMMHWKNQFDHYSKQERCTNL
T2 sequence (O42275 24-633): as above

C#CCNS(=O)(=O)c1ccc(N=Nc2ccc(N(C)C)cc2)cc1 [Compound 3, 4-(4-Dimethylamino-phenylazo)-N-prop-2-ynyl benzenosulfonamide]
Inhibition of rMAChE (in words) ([1]; listed as dabsyl): not inhibitors; also recorded: inactive | Inhibition of EEAChE (in words) ([2]; listed as dabsyl): not inhibitors; also recorded: inactive

C#CCNC(=O)c1cc2ccc(N(CC)CC)cc2oc1=O [Compound 4, 2H-1-Benzopyran-7-N-diethyl-2-oxo-3-propynylcarboxylamide]
Inhibition of rMAChE (in words) [1]: inhibited | Inhibition of rMAChE (in words) ([1]; listed as diethylaminocoumarin): some inhibitory ability | Inhibition of EEAChE (in words) [2]: not an inhibitor

Xanthylium, 9-[-2-sulfophenyl]-3,6-bis(diethylamino)-4-sulfonamide [Compound 6]
Inhibition of rMAChE (in words) [1]: reversibly inactivate | Inhibition of rMAChE (in words) ([1]; listed as Lissamine): inhibited | Type of inhibition (EEAChE [3]): mixed-type competitive and noncompetitive inhibition | Inhibition of EEAChE (in words) [2]: reversibly inactivate | Inhibition of EEAChE (in words) ([2]; listed as Lissamine): inhibited

9-[2(or 4)-[[[-[-N-Propynylsulfonamide]-4(or 2)-sulfophenyl]-2,3,6,7,12,13,16,17–octahydro-1H, 5H, 11H, 15H-xantheno[2,3,4-ij:5,6,7i′j′]-diquinolizium-18-inner salt [Compound 7]
Inhibition of rMAChE (in words) [1]: reversibly inactivate | Inhibition of rMAChE (in words) ([1]; listed as Texas Red): inhibited | Inhibition of EEAChE (in words) [2]: reversibly inactivate | Inhibition of EEAChE (in words) ([2]; listed as Texas Red): inhibited

c1cc2ccc3cccc4ccc(c1)c2c34 [pyrene]
IC50 (EEAChE [4]): 5.22 µM

C#CCNS(=O)(=O)c1cccc2c(N(C)C)cccc12 [Compound 1, 5-(Dimethylamino)-N-(-2-propynyl)-1-naphthalenesulfonamide]
Inhibition of rMAChE (in words) ([1]; listed as dansyl): not inhibitors; also recorded: inactive | Inhibition of EEAChE (in words) ([2]; listed as dansyl): not inhibitors; also recorded: inactive

C#CCNC(=O)c1cc2ccc(OC)cc2oc1=O [Compound 5, 2H-1-Benzopyran-7-methoxy-2-oxo-3-N-propynylcarboxylamide]
Inhibition of rMAChE (in words) ([1]; listed as methoxycoumarin): not inhibitors; also recorded: inactive | Inhibition of EEAChE (in words) ([2]; listed as methoxycoumarin): not inhibitors; also recorded: inactive

C#CCNS(=O)(=O)c1ccc2ccc3cccc4ccc1c2c34 [Compound 2, 1-N-(-2-Propynyl)-pyrenesulfonamide]
Inhibition of rMAChE (in words) [1]: inactive | Inhibition of EEAChE (in words) [2]: inactive
